What was measured:
HiBit-BRM fusion protein = biological target: T1, HiBit-BRM fusion protein (Homo sapiens, UniProt P51531); assay: HiBiT-BRM cell-based degradation assay (Nano-Glo HiBiT Lytic Detection, 24 h); settings: HeLa cell line expressing HiBiT-BRM; for DC50: read-out: BRM HiBit Degradation IC50
T1 construct: expressed in transfected cells
How it was run: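 HeLa cells stably expressing HiBiT-BRM were treated for 24 h with compounds (10-point 3-fold dilutions, 30 μM final top dose, in duplicate). HiBiT was detected by lytic LgBiT complementation luminescence. % degradation was normalized to DMSO (high control) and 2 μM of a reference BRM/BRG1 degrader (low control).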

[1] = biological target: T2, HiBit-BRG1 fusion protein (Homo sapiens, UniProt P51532); assay: HiBiT-BRG1 cell-based degradation assay (Nano-Glo HiBiT Lytic Detection, 24 h); settings: HeLa cell line expressing HiBit-BRG1 and LgBit; for Dmax: read-out: BRG1 HiBit Degradation Maximum (%); for DC50: read-out: BRMG1 HiBit Degradation IC50
T2 construct: expressed in transfected cells
T2 sequence (P51532 whole entry, the tested form may be a part): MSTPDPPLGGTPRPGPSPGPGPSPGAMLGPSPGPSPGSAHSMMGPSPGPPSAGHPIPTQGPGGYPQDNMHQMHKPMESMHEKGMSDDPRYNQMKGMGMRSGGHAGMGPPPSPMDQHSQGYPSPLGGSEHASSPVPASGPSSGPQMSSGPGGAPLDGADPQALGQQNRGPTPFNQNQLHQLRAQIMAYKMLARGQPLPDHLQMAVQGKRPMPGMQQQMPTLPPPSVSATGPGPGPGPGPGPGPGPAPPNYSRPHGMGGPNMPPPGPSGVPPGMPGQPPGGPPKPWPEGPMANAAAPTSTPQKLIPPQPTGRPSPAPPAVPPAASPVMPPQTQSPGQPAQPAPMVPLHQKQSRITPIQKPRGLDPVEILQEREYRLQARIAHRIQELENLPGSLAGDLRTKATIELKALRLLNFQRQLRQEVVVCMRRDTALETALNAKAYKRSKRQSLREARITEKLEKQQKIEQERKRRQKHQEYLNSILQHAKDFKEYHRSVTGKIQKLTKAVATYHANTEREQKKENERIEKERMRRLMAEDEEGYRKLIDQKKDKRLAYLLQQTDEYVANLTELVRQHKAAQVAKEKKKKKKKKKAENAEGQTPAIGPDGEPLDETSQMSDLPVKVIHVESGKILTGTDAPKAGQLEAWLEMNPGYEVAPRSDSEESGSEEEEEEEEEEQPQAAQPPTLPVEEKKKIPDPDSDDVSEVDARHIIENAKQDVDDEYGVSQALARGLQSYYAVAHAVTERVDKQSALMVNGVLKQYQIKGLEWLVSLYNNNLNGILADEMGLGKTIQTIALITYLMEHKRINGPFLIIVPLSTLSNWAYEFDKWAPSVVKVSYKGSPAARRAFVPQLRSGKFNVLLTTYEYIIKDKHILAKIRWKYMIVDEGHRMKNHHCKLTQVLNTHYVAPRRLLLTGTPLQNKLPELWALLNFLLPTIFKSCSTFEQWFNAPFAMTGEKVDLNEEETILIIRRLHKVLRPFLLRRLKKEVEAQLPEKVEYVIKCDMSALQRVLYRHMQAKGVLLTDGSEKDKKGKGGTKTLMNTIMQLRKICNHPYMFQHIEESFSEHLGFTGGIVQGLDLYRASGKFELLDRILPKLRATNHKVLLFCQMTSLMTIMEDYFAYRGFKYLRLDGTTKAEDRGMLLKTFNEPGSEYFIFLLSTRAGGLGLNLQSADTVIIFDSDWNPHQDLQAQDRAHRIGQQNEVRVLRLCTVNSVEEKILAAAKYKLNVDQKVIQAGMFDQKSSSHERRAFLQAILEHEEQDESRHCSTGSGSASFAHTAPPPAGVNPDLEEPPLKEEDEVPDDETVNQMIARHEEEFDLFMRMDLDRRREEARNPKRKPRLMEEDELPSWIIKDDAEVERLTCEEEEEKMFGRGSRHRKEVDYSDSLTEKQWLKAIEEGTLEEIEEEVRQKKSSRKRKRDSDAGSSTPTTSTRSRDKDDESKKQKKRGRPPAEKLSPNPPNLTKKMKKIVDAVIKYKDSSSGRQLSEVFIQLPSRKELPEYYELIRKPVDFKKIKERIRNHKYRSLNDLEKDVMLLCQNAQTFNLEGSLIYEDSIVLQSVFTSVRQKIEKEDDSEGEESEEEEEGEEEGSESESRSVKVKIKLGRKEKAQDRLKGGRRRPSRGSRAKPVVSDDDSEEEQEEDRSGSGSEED
How it was run: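 Percent degradation derived from lytic HiBiT signal, normalized to DMSO-treated cells and to cells given 2 μM of a known BRM/BRG1 degrader. The HeLa line stably expressed HiBit-BRG1 and LgBit; treatment lasted 24 h at 5000 cells per well.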

T1 sequence (P51531 whole entry, the tested form may be a part): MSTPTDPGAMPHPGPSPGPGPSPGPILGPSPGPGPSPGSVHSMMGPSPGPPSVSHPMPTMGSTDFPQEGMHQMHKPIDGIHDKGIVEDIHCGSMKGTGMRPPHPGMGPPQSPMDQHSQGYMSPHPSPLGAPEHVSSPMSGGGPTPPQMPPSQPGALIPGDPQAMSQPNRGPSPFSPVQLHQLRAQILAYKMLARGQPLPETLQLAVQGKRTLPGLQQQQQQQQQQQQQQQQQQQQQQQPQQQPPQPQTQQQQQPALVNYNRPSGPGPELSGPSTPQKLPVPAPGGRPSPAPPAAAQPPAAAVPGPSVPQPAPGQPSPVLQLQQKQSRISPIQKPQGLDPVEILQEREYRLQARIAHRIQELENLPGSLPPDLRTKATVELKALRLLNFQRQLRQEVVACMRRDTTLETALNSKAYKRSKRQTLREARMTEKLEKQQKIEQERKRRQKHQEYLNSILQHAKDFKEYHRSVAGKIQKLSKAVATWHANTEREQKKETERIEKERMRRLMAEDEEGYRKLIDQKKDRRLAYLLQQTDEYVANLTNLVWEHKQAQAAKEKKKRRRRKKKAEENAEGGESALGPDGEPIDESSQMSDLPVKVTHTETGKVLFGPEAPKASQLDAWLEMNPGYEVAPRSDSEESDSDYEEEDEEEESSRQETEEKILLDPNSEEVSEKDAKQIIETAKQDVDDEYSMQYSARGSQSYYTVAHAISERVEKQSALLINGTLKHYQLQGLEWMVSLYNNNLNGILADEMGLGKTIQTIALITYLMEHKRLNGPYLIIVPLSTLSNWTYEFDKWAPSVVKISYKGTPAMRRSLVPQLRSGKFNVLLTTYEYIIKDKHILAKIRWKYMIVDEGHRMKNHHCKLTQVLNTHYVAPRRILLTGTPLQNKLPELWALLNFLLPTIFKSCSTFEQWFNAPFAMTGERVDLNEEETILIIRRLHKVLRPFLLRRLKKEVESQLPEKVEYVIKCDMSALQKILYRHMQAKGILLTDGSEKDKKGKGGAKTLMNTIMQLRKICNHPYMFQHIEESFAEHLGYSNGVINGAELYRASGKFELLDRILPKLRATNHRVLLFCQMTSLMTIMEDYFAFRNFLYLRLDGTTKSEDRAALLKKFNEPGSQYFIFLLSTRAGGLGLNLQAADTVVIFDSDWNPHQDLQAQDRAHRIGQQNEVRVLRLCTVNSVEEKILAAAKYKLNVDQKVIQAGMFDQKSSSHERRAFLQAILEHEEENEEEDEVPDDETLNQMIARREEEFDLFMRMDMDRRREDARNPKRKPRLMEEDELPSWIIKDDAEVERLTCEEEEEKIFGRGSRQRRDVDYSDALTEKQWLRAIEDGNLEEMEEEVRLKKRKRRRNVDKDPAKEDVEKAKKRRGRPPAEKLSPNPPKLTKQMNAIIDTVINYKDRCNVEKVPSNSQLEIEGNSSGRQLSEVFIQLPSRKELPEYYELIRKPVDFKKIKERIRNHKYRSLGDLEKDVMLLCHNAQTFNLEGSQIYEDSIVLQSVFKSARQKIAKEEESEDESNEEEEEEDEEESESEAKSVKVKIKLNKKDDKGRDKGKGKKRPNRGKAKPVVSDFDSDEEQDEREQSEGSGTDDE

`Cc1ncsc1-c1ccc([C@H](C)NC(=O)[C@@H]2C[C@@H](O)CN2C(=O)[C@H](c2cc(CN3CCc4[nH]c5nnc(-c6ccccc6O)cc5c4C3)no2)C(C)C)cc1` (single isomer, unassigned) [Compound 135] was tested, and the “BRM HiBit Degradation Maximum (%)” value (HiBit-BRM fusion protein) was “C (“C” indicates maximum degradation < 50%)” and the Dmax [1] was less than 50%.
`Cc1ncsc1-c1ccc([C@H](C)NC(=O)[C@@H]2C[C@@H](O)CN2C(=O)[C@@H](c2cc(CN3CCc4[nH]c5nnc(-c6ccccc6O)cc5c4C3)no2)C(C)C)cc1` (single isomer, unassigned) [Compound 136] was tested, and the “BRM HiBit Degradation Maximum (%)” value (HiBit-BRM fusion protein) was “C (“C” indicates maximum degradation < 50%)” and the Dmax [1] was less than 50%.
In the case of `Cc1ncsc1-c1ccc([C@H](C)NC(=O)[C@@H]2C[C@@H](O)CN2C(=O)[C@@H](c2cc(CN3CC(c4cc5cc(-c6ccccc6O)nnc5[nH]4)C3)no2)C(C)C)cc1` (single isomer, unassigned) [Compound 137], the “BRM HiBit Degradation Maximum (%)” value (HiBit-BRM fusion protein) is reported as “A (“A” indicates maximum degradation ≥ 75%)” and the Dmax [1] is reported as less than 50%.
In the case of `Cc1ncsc1-c1ccc([C@H](C)NC(=O)[C@@H]2C[C@@H](O)CN2C(=O)[C@@H](c2cc(OCCCN[C@@H]3CCc4[nH]c5nnc(-c6ccccc6O)cc5c4C3)no2)C(C)C)cc1` (single isomer, unassigned) [Compound 145], the “BRM HiBit Degradation Maximum (%)” value (HiBit-BRM fusion protein) is reported as “A (“A” indicates maximum degradation ≥ 75%)”, the DC50 (HiBit-BRM fusion protein) is reported as greater than 100 nM and the Dmax [1] is reported as less than 50%.
For `Cc1ncsc1-c1ccc([C@H](C)NC(=O)[C@@H]2C[C@@H](O)CN2C(=O)[C@@H](c2cc(N3CCC(C(=O)N[C@@H]4CCc5[nH]c6nnc(-c7ccccc7O)cc6c5C4)CC3)no2)C(C)C)cc1` (single isomer, unassigned) [Compound 146], the “BRM HiBit Degradation Maximum (%)” value (HiBit-BRM fusion protein) was “A (“A” indicates maximum degradation ≥ 75%)”, the DC50 (HiBit-BRM fusion protein) was greater than 10 nM and the Dmax [1] was greater than 75%. For the same compound, the DC50 [1] was greater than 100 nM.
In the case of `Cc1ncsc1-c1ccc([C@H](C)NC(=O)[C@@H]2C[C@@H](O)CN2C(=O)C(c2cc(C3CCN(C(=O)[C@H]4CCc5[nH]c6nnc(-c7ccccc7O)cc6c5C4)CC3)no2)C(C)C)cc1` (single isomer, unassigned) [Compound 147], the “BRM HiBit Degradation Maximum (%)” value (HiBit-BRM fusion protein) is reported as “A (“A” indicates maximum degradation ≥ 75%)”, the DC50 (HiBit-BRM fusion protein) is reported as greater than 10 nM and the Dmax [1] is reported as greater than 50%. It also gave a DC50 [1] greater than 100 nM.
In the case of `Cc1ncsc1-c1ccc([C@H](C)NC(=O)[C@@H]2C[C@@H](O)CN2C(=O)[C@@H](c2cc(CCN3CC(c4cc5cc(-c6ccccc6O)nnc5[nH]4)C3)no2)C(C)C)cc1` (single isomer, unassigned) [Compound 152], the “BRM HiBit Degradation Maximum (%)” value (HiBit-BRM fusion protein) is reported as “B (“B” indicates maximum degradation ≥ 50%)”, the DC50 (HiBit-BRM fusion protein) is reported as greater than 100 nM and the Dmax [1] is reported as less than 50%.
For `Cc1ncsc1-c1ccc([C@H](C)NC(=O)[C@@H]2C[C@@H](O)CN2C(=O)[C@H](c2cc(C3CN(C(=O)[C@H]4CCc5[nH]c6nnc(-c7ccccc7O)cc6c5C4)C3)no2)C(C)C)cc1` (single isomer, unassigned) [Compound 153], the “BRM HiBit Degradation Maximum (%)” value (HiBit-BRM fusion protein) was “C (“C” indicates maximum degradation < 50%)” and the Dmax [1] was less than 50%.
For `Cc1ncsc1-c1ccc([C@H](C)NC(=O)[C@@H]2C[C@@H](O)CN2C(=O)[C@H](c2cc(C3CN(C(=O)[C@@H]4CCc5[nH]c6nnc(-c7ccccc7O)cc6c5C4)C3)no2)C(C)C)cc1` (single isomer, unassigned) [Compound 154], the “BRM HiBit Degradation Maximum (%)” value (HiBit-BRM fusion protein) was “C (“C” indicates maximum degradation < 50%)” and the Dmax [1] was less than 50%.
`Cc1ncsc1-c1ccc([C@H](C)NC(=O)[C@@H]2C[C@@H](O)CN2C(=O)[C@H](c2cc(C3CCN(C(=O)[C@H]4CCc5[nH]c6nnc(-c7ccccc7O)cc6c5C4)CC3)no2)C(C)C)cc1` (single isomer, unassigned) [Compound 155] was tested, and the “BRM HiBit Degradation Maximum (%)” value (HiBit-BRM fusion protein) was “C (“C” indicates maximum degradation < 50%)” and the Dmax [1] was less than 50%.
With `Cc1ncsc1-c1ccc([C@H](C)NC(=O)[C@@H]2C[C@@H](O)CN2C(=O)[C@@H](c2cc(C3CN(C(=O)[C@@H]4CCc5[nH]c6nnc(-c7ccccc7O)cc6c5C4)C3)no2)C(C)C)cc1` (single isomer, unassigned) [Compound 158] the “BRM HiBit Degradation Maximum (%)” value (HiBit-BRM fusion protein) was “A (“A” indicates maximum degradation ≥ 75%)”, the DC50 (HiBit-BRM fusion protein) was greater than 100 nM and the Dmax [1] was less than 50%.
With `Cc1ncsc1-c1ccc([C@H](C)NC(=O)[C@@H]2C[C@@H](O)CN2C(=O)[C@H](c2cc(N3CC(CN4CC(c5cc6cc(-c7ccccc7O)nnc6[nH]5)C4)C3)no2)C(C)C)cc1` (single isomer, unassigned) [Compound 162] the “BRM HiBit Degradation Maximum (%)” value (HiBit-BRM fusion protein) was “C (“C” indicates maximum degradation < 50%)”, the Dmax [1] was greater than 50% and the DC50 [1] was greater than 1000 nM.
`Cc1ncsc1-c1ccc([C@H](C)NC(=O)[C@@H]2C[C@@H](O)CN2C(=O)[C@@H](c2cc(N3CC(CN4CC(c5cc6cc(-c7ccccc7O)nnc6[nH]5)C4)C3)no2)C(C)C)cc1` (single isomer, unassigned) [Compound 163] was tested, and the “BRM HiBit Degradation Maximum (%)” value (HiBit-BRM fusion protein) was “A (“A” indicates maximum degradation ≥ 75%)”, the DC50 (HiBit-BRM fusion protein) was greater than 10 nM and the Dmax [1] was greater than 50%. The DC50 [1] was greater than 100 nM.
In the case of `Cc1ncsc1-c1ccc([C@H](C)NC(=O)[C@@H]2C[C@@H](O)CN2C(=O)[C@@H](c2cc(OCCN(C)[C@H]3CCc4[nH]c5nnc(-c6ccccc6O)cc5c4C3)no2)C(C)C)cc1` (single isomer, unassigned) [Compound 165], the “BRM HiBit Degradation Maximum (%)” value (HiBit-BRM fusion protein) is reported as “A (“A” indicates maximum degradation ≥ 75%)”, the DC50 (HiBit-BRM fusion protein) is reported as greater than 100 nM and the Dmax [1] is reported as less than 50%.
In the case of `Cc1ncsc1-c1ccc([C@H](C)NC(=O)[C@@H]2C[C@@H](O)CN2C(=O)[C@@H](c2cc(C3CCN(C(=O)[C@@H]4CCc5[nH]c6nnc(-c7ccccc7O)cc6c5C4)CC3)no2)C(C)C)cc1` (single isomer, unassigned) [Compound 166], the “BRM HiBit Degradation Maximum (%)” value (HiBit-BRM fusion protein) is reported as “A (“A” indicates maximum degradation ≥ 75%)”, the DC50 (HiBit-BRM fusion protein) is reported as greater than 10 nM and the Dmax [1] is reported as less than 50%. For the same compound, the DC50 [1] was greater than 1000 nM.
In the case of `Cc1ncsc1-c1ccc([C@H](C)NC(=O)[C@@H]2C[C@@H](O)CN2C(=O)[C@@H](c2cc(OCCNC(=O)[C@H]3CCc4[nH]c5nnc(-c6ccccc6O)cc5c4C3)no2)C(C)C)cc1` (single isomer, unassigned) [Compound 167], the “BRM HiBit Degradation Maximum (%)” value (HiBit-BRM fusion protein) is reported as “A (“A” indicates maximum degradation ≥ 75%)”, the DC50 (HiBit-BRM fusion protein) is reported as greater than 100 nM and the Dmax [1] is reported as greater than 50%. The DC50 [1] was greater than 100 nM.
With `Cc1ncsc1-c1ccc([C@H](C)NC(=O)[C@@H]2C[C@@H](O)CN2C(=O)[C@@H](c2cc(OCC(=O)N[C@H]3CCc4[nH]c5nnc(-c6ccccc6O)cc5c4C3)no2)C(C)C)cc1` (single isomer, unassigned) [Compound 168] the “BRM HiBit Degradation Maximum (%)” value (HiBit-BRM fusion protein) was “A (“A” indicates maximum degradation ≥ 75%)”, the DC50 (HiBit-BRM fusion protein) was greater than 10 nM and the Dmax [1] was less than 50%.
In the case of `Cc1ncsc1-c1ccc([C@H](C)NC(=O)[C@@H]2C[C@@H](O)CN2C(=O)[C@@H](c2cc(OCCNC(=O)[C@@H]3CCc4[nH]c5nnc(-c6ccccc6O)cc5c4C3)no2)C(C)C)cc1` (single isomer, unassigned) [Compound 172], the “BRM HiBit Degradation Maximum (%)” value (HiBit-BRM fusion protein) is reported as “A (“A” indicates maximum degradation ≥ 75%)”, the DC50 (HiBit-BRM fusion protein) is reported as greater than 10 nM and the Dmax [1] is reported as less than 50%.
`Cc1ncsc1-c1ccc([C@H](C)NC(=O)[C@@H]2C[C@@H](O)CN2C(=O)[C@@H](c2cc(N3CCC(CN[C@@H]4CCc5[nH]c6nnc(-c7ccccc7O)cc6c5C4)CC3)no2)C(C)C)cc1` (single isomer, unassigned) [Compound 173] was tested, and the “BRM HiBit Degradation Maximum (%)” value (HiBit-BRM fusion protein) was “A (“A” indicates maximum degradation ≥ 75%)”, the DC50 (HiBit-BRM fusion protein) was greater than 100 nM and the Dmax [1] was greater than 50%. For the same compound, the DC50 [1] was greater than 1000 nM.
With `Cc1ncsc1-c1ccc([C@H](C)NC(=O)[C@@H]2C[C@@H](O)CN2C(=O)[C@H](c2cc(C3CN(C(=O)c4cc5cc(-c6ccccc6O)nnc5[nH]4)C3)no2)C(C)C)cc1` (single isomer, unassigned) [Compound 176] the “BRM HiBit Degradation Maximum (%)” value (HiBit-BRM fusion protein) was “C (“C” indicates maximum degradation < 50%)” and the Dmax [1] was less than 50%.
For `Cc1ncsc1-c1ccc([C@H](C)NC(=O)[C@@H]2C[C@@H](O)CN2C(=O)[C@@H](c2cc(C3CN(C(=O)c4cc5cc(-c6ccccc6O)nnc5[nH]4)C3)no2)C(C)C)cc1` (single isomer, unassigned) [Compound 178], the “BRM HiBit Degradation Maximum (%)” value (HiBit-BRM fusion protein) was “C (“C” indicates maximum degradation < 50%)” and the Dmax [1] was less than 50%.
For `Cc1ncsc1-c1ccc([C@H](C)NC(=O)[C@@H]2C[C@@H](O)CN2C(=O)[C@@H](c2cc(C3CCN(C(=O)CN4CC(c5cc6cc(-c7ccccc7O)nnc6[nH]5)C4)CC3)no2)C(C)C)cc1` (single isomer, unassigned) [Compound 179], the “BRM HiBit Degradation Maximum (%)” value (HiBit-BRM fusion protein) was “A (“A” indicates maximum degradation ≥ 75%)”, the DC50 (HiBit-BRM fusion protein) was greater than 100 nM and the Dmax [1] was less than 50%.
For `Cc1ncsc1-c1ccc(CNC(=O)[C@@H]2C[C@@H](O)CN2C(=O)[C@@H](NC(=O)CCCC(=O)N[C@H]2CCc3[nH]c4nnc(-c5ccccc5O)cc4c3C2)C(C)(C)C)cc1` (single isomer, unassigned) [Compound 184], the “BRM HiBit Degradation Maximum (%)” value (HiBit-BRM fusion protein) was “B (“B” indicates maximum degradation ≥ 50%)”, the DC50 (HiBit-BRM fusion protein) was greater than 1000 nM and the Dmax [1] was less than 50%.
For `Cc1ncsc1-c1ccc([C@H](C)NC(=O)[C@@H]2C[C@@H](O)CN2C(=O)[C@@H](c2cc(N3CCN(C(=O)[C@H]4CCc5[nH]c6nnc(-c7ccccc7O)cc6c5C4)CC3)no2)C(C)C)cc1` (single isomer, unassigned) [Compound 188], the “BRM HiBit Degradation Maximum (%)” value (HiBit-BRM fusion protein) was “A (“A” indicates maximum degradation ≥ 75%)”, the DC50 (HiBit-BRM fusion protein) was greater than 100 nM and the Dmax [1] was greater than 75%. It also gave a DC50 [1] greater than 100 nM.
`Cc1ncsc1-c1ccc(CNC(=O)[C@@H]2C[C@@H](O)CN2C(=O)[C@@H](NC(=O)CCCNC(=O)[C@H]2CCc3[nH]c4nnc(-c5ccccc5O)cc4c3C2)C(C)(C)C)cc1` (single isomer, unassigned) [Compound 190] was tested, and the “BRM HiBit Degradation Maximum (%)” value (HiBit-BRM fusion protein) was “C (“C” indicates maximum degradation < 50%)” and the Dmax [1] was less than 50%.

— patent publication US20240024488A1, “COMPOUNDS AND USES THEREOF” (Foghorn Therapeutics Inc., priority 2020, published 2024)
